Tests used:
[1] = Half-life in the body (statement only, no method); settings: in vivo
[2] = test system: Planaria (Dugesia japonica); assay: Planaria regeneration after surgical injury; format: in vivo
Procedure: Planaria were surgically injured post-ocular and received either vehicle (0.1% ethanol) or 10 nM 4,5-RCTR1 one-hour post-injury and imaged daily for six days. A) Representative images of Planaria regeneration from Day 1-6 post-surgical injury. B) Tissue regeneration indices (μm) from Day 1-6 post-surgically injured Planaria. C) Tissue regeneration rate (TRR, μm/day) is the rate (area of tissue regeneration/days at TRI50) to achieve 50% tissue regeneration after surgical injury. n=6 Planaria per group per day. Data represented as mean±SEM. Unpaired two-tailed Student's t-test. *p<0.05, **p<0.01, ***p<0.001, and ****p<0.0001 versus vehicle. Planaria (Dugesia japonica) were kept in water (Poland Spring, Poland, ME) at 20° c. All animals were starved for 7 days prior to surgery. Planaria were surgically injured post-ocularly and received either vehicle (0.1% ethanol) or 10 nM 4,5-RCTR1 in water one-hour post-injury. Tissue regeneration was monitored daily for six days via a Zeiss Axiovert 40 CFL Microscope (Jena, Germany) equipped with a Lumenera Infinity 3 Camera (Ottawa, Canada) running Image-Pro Plus (Version 7.0.0.591, Media Cybernetics, Rockville, MD, USA). Regenerated tissue was quantified using ImageJ software (NIH). The tissue regeneration index (TRI) normalizes the total area of regenerated tissue by the post-ocular width. The TRI50 is the amount of time it takes to reach 50% of the maximum […]. […] FIGS. 2A, 2B and 2C: Planaria were surgically injured post-ocular and received either vehicle (0.1% ethanol) or 4,5-RCTR1 one-hour post-injury and imaged daily for six days. 2A) Representative images of Planaria regeneration from Day 1-6 post-surgical injury. 2B) Tissue regeneration indices (μm) from Day 1-6 post-surgically injured Planaria. 2C) Tissue regeneration rate (TRR, μm/day) is the rate (area of tissue regeneration/days at TRI50) to achieve 50% tissue regeneration after surgical injury. n=6 Planaria per group per day. Data represented as mean±SEM. Unpaired two-tailed Student's t-test. *p<0.05, **p<0.01, ***p<0.001, and ****p<0.0001 versus vehicle.

[3] = test system: human PBMCs; assay: Granuloma assay: human PBMCs with E. coli total protein extract-coupled sepharose beads; format: cell-based; settings: single treatment 10 nM at time 0; scoring 0-4 at day 3; versus vehicle
Procedure: FIG. 3: Resolvin (Rv) Peptido-Lipids Delay Human Granuloma Formation. Freshly isolated human PBMCs were incubated with E. coli total protein extract covalently coupled CNBr-activated sepharose beads and received a single treatment of either vehicle (0.1% methanol or ethanol), 10 nM RvD3, 10 nM RCTR1, or 10 nM 4,5-RCTR1 at time 0 and incubated for 6 days. A) Scoring of day 3 granuloma severity post-single treatment with either vehicle (0.1% methanol or ethanol), 10 nM RvD3, 10 nM RCTR1, or 10 nM 4,5-RCTR1. n=3 individual human donors. Mean±SEM. Unpaired two-tailed Student's t-test. **p<0.01, ***p<0.001 versus vehicle. B) Representative images of granuloma formation on day 3 after a single treatment with either vehicle (0.1% methanol or ethanol), 10 nM RvD3, 10 nM RCTR1, or 10 nM 4,5-RCTR1. […]
E. coli (Serotype: 06:K2:H1) was grown overnight in Luria broth in an orbital shaker (400 rpm) at 37° C. […] Supernatant was taken before and after the coupling reaction and measured for protein content by BCA assay (Thermo Fisher Scientific) to determine the efficiency of the reaction. […]
Freshly isolated PBMCs (1×10^6 cells/well) were treated with either vehicle (0.1% ethanol), RvD3 (10 nM), RCTR1 (10 nM) or 4,5-RCTR1 (10 nM) and E. coli total protein lysate-coated CNBr-activated sepharose beads simultaneously in 1 mL complete RPMI-1640. […] Granulomas were scored based on formation progression. […]

CC/C=C\C[C@H](O)/C=C/C=C\C\C=C/C=C/C=C/[C@@H](SC[C@H](NC(=O)CC[C@H](N)C(=O)O)C(=O)NCC(=O)O)[C@@H](O)CCC(=O)O [4,5-RCTR1, 5-glutathionyl, 4,17-hydroxy-docosahexaenoic acid]
half-life in the body [1]: relatively sort half-life | amount of tissue regenerated ([2]; in vivo): increases the amount of tissue regenerated | time required for tissue regeneration ([2]; in vivo): accelerates the time required for tissue regeneration | regenerative action / planaria regeneration ([2]; surgically injured post-ocular, 10 nM one-hour post-injury, imaged daily for six days, versus vehicle): regenerative action | granuloma formation [3]: significantly delays granuloma formation

Reference: US20230399295A1, “COMPOSITIONS FOR INCREASING TISSUE REGENERATION AND DELAYING OR REDUCING GRANULOMA FORMATION” (THE BRIGHAM AND WOMEN'S HOSPITAL, INC., priority 2020, published 2023)
